Data reported in US20080033169A1, “Crystalline Form Of Cefdinir Ammonium Salt As An Intermediate For The Preparation Of Pure Cefdinir” (priority 2004, published 2008).

Assays:
water solubility = type: physicochemical; settings: in water
stability = type: physicochemical; settings: crystalline salt

water solubility (water solubility): complete | stability (stability): good
SMILES: C=CC1=C(C(=O)O)N2C(=O)[C@@H](NC(=O)/C(=N\O)c3csc(N)n3)[C@H]2SC1.N [Crystalline Cefdinir ammonium salt, Cefdinir ammonium salt]
